Experimental data from publication PMC4984408 (ChemistryOpen, 2016).
Read-outs that look alike come from different tables or passages of the source.

How the values were obtained:
[1] = system: dengue viruses (DENV, serotype D2); assay type: cell-based, dengue virus
[2] = system: yellow fever (YFV, 17 D strain of ASIBI); assay type: cell-based, yellow fever virus

Row | SMILES | D2 inhibition [% Cells alive] ([1]; 5 μM) | D2 inhibition [% Cells alive] ([1]; 10 μM) | D2 inhibition [% Cells alive] ([1]; 20 μM) | YFV inhibition [% Cells alive] ([2]; 5 μM) | YFV inhibition [% Cells alive] ([2]; 10 μM) | YFV inhibition [% Cells alive] ([2]; 20 μM) | CC50 (Vero cells) [µM] | anti-DENV activity (in words) [1] | anti-YFV activity (in words) [2] | cytotoxicity (in words) (Vero cells)
1 | Cc1cn([C@H]2C[C@H](OC(c3ccccc3)(c3ccccc3)c3ccccc3)[C@@H](COC(c3ccccc3)(c3ccccc3)c3ccccc3)O2)c(=O)[nH]c1=O [21 B, 5′,3′‐bis‐O‐trityl‐thymidine] | 0 | 0 | 0 | 0 | 0 | 0.95±0.17 |  |  |  | 
2 | O=c1[nH]c(=O)n([C@H]2C[C@H](O)[C@@H](COC(c3ccccc3)(c3ccccc3)c3ccccc3)O2)cc1I [14 D, 5′‐O‐Trityl‐5‐iodo‐2′‐deoxyuridine] | 0 | 0 | 2.47±0.06 | 0 | 0 | 0 |  |  |  | 
3 | COc1ccc(C(OCC2OC(n3ccc(NC(C)=O)nc3=O)CS2)(c2ccccc2)c2ccc(OC)cc2)cc1 (stereo not shown) [12 H, 5′‐O‐Dimetoxytrityl‐N‐acetyl‐lamivudine] | 0 | 0 | 0 | 0 | 0 | 70.45±18.31 | > 20 |  |  | 
4 | COc1ccc(C(OC[C@H]2O[C@@H](n3ccc(=O)[nH]c3=O)[C@H](F)[C@@H]2O)(c2ccccc2)c2ccc(OC)cc2)cc1 [16 H, 5′‐O‐dimethoxytrityl‐2′‐fluoro‐2′‐deoxyuridine] | 0 | 0 | 0 | 0 | 0 |  | > 20 |  |  | 
5 | COc1ccc(C(OC[C@H]2O[C@@H](n3cc(F)c(=O)[nH]c3=O)C[C@@H]2O)(c2ccccc2)c2ccc(OC)cc2)cc1 [15 H, 5′‐O‐dimethoxytrityl‐5‐fluoro‐2′‐deoxyuridine] | 0 | 0 | 0 | 0 |  |  | > 20 |  |  | 
6 | O=c1[nH]c(NC(c2ccccc2)(c2ccccc2)c2ccccc2)nc2c1ncn2CCC(COC(c1ccccc1)(c1ccccc1)c1ccccc1)COC(c1ccccc1)(c1ccccc1)c1ccccc1 [22 B‐NHTr, 2‐N,5′,3′‐O‐tri‐trityl penciclovir] | 0 | 0 | 0 | 0 | 0 | 8.09±0.04 | > 20 |  |  | 
7 | O=c1[nH]c(=O)n([C@@H]2O[C@H](COC(c3ccccc3)(c3ccccc3)c3ccccc3)[C@@H](O)[C@H]2O)cc1F [6 D, 5′‐O‐trityl‐5‐fluorouridine] | 0 | 0 | 0 | 0 | 0 |  |  | no inhibitory properties |  | 
8 | NC(=O)c1ncn([C@@H]2O[C@H](COC(c3ccccc3)(c3ccccc3)c3ccccc3)[C@@H](OC(c3ccccc3)(c3ccccc3)c3ccccc3)[C@H]2O)n1 [5 B, 5′,3′‐bis‐O‐tritylribavirin] | 0 | 0 |  | 0 | 0 | 0 | > 20 |  |  | 
9 | COc1ccc(C(OC[C@H]2O[C@@H](n3cc(F)c(=O)[nH]c3=O)[C@H](O)[C@@H]2O)(c2ccccc2)c2ccc(OC)cc2)cc1 [6 H, 5′‐O‐dimethoxytrityl‐5‐fluorouridine] | 0 | 0 | 0 | 9.22±0.46 | 30.89±1.85 |  | > 20 |  |  | 
10 | O[C@H]1[C@H](O)[C@@H](COC(c2ccccc2)(c2ccccc2)c2ccccc2)O[C@H]1n1cnc2c(NC(c3ccccc3)(c3ccccc3)c3ccccc3)nc(F)nc21 [20 D‐NHTr, 5′‐O,N‐trityl‐fludarabine] |  |  |  | 0 | 0.28 | 0.84 | > 20 |  | devoid of any significant anti‐YFV inhibitory effect | no cytotoxicity
11 | COc1ccc(C(OC[C@H]2O[C@@H](n3ccc(=O)[nH]c3=O)[C@H](O)[C@@H]2O)(c2ccccc2)c2ccc(OC)cc2)cc1 [9 H, 5′‐O‐Dimethoxytrityluridine] | 0 | 0 | 0 |  |  |  | > 20 |  |  | 
12 | Cc1cn([C@H]2C[C@H](O)[C@@H](COC(c3ccccc3)(c3ccccc3)c3ccccc3)O2)c(=O)[nH]c1=O [Compound 1, 5′‐O‐trityl‐thymidine] | 0 | 0 | 0 | 0 | 1.25±0.03 |  |  | no inhibitory properties |  | 
13 | Cc1cn([C@@H]2O[C@H](COC(c3ccccc3)(c3ccccc3)c3ccccc3)[C@@H](O)[C@H]2O)c(=O)[nH]c1=O [19 D, 5′‐O‐trityl‐5‐methyluridine] | 0 | 0 | 0 | 0 | 0 |  |  | no inhibitory properties |  | 
14 | O=c1ccn([C@@H]2O[C@H](COC(c3ccccc3)(c3ccccc3)c3ccccc3)[C@@H](O)[C@H]2F)c(=O)[nH]1 [16 D, 5′‐O‐trityl‐2′‐fluoro‐2′‐deoxyuridine] | 0 | 0 |  | 0 | 0 | 0 |  |  |  | 
